Measurements reported in US12120996B2, “Induction method for improving yield and fertility of 2n pollen in Camellia oleifera” (Central South University of Forestry and Technology, priority 2024, dated 2024).

What was measured:
[1] = system: Camellia oleifera 'Huaxin' 2n pollen; test: 2n pollen yield (occurrence frequency) after precursor application and 45° C. high-temperature treatment of flower branches; assay type: in vivo
Description: (§1) After the high-temperature treatment was released, Camellia oleifera grew naturally until anthers were pollinated. Pollen of each treatment was collected, and a temporary smear of the pollen was made by an aceto-carmine staining method and then photographed by an OlympusDP70 optical microscope; and a diameter of pollen in a temporary smear of each treatment was measured by Image J software, and a yield and a fertility rate of 2n pollen were counted.
(§2) Pollen stained red by aceto-carmine was counted as fertile pollen, and pollen not stained red by aceto-carmine was counted as infertile pollen (as shown in FIG. 3).
(§3) An occurrence frequency of 2n pollen was a ratio of an amount of 2n pollen to a total amount of pollen observed, and a fertility rate of 2n pollen was a ratio of an amount of fertile 2n pollen to a total amount of 2n pollen observed. […] When no high-temperature treatment is applied, an occurrence frequency of 2n pollen is 0.9%, and a fertility rate is 100%. • 2. […] Treatment conditions for 2n pollen in Camellia oleifera in the present disclosure: a leptotene stage to a pachytene stage of pollen mother cells, a style length: less than 2.57 mm, an induction temperature: 43° C. to 49° C., and an induction time: 3 h to 6 h.
(§4) Flower branches with a style length developing to 1.97 mm<L≤2.27 mm and pollen mother cells at a leptotene stage to a pachytene stage were selected as target flower branches, and DMTU solutions with different concentrations were applied to the target flower branches, respectively; and a flower branch not treated with a DMTU solution was adopted as a control.
(§5) The concentrations of the DMTU solutions were 1 mg/L, 5 mg/L, 10 mg/L, 15 mg/L, 20 mg/L, and 25 mg/L, respectively. Preparation method of a DMTU solution: DMTU was first dissolved with an appropriate amount of alcohol, and then water was added to a required concentration.
(§6) The above DMTU solutions with different concentrations each were sprayed on a flower branch, where a DMTU solution was evenly sprayed on a flower branch by a sprayer until there were condensed water droplets flowing down from leaves or flower buds; and each treatment was numbered and recorded (as shown in Table 3).
(§7) After each DMTU solution was applied, in order to avoid rapid evaporation of a solution on a leaf surface due to a high-temperature treatment, the whole flower branch was wrapped with a plastic film, and then the non-ex vivo tree branch bud heating device in the authorized patent (patent ZL200610113448.X) was immediately used to apply a 45° C. high-temperature treatment to each target flower branch for 4 h, namely, a high-temperature doubling treatment. A doubling treatment method was the same as the doubling treatment method in step 1.2 of Example 1.
(§8) After a high-temperature treatment was conducted for 4 h, a heating bag and a plastic film were removed to release the high-temperature treatment, and Camellia oleifera was allowed to grow naturally until anthers were pollinated. Pollen of each treatment was collected, and a temporary smear of the pollen was made by an aceto-carmine staining method and then photographed by an Olympus DP70 optical microscope; and a diameter of pollen was measured by Image J software, and an occurrence frequency and a fertility rate of 2n pollen were counted.
(§9) The above reagents were applied through spraying on a flower branch and injection into a flower bud. The spraying on a flower branch was as follows: a precursor solution was evenly sprayed on the flower branch by a sprayer until there were condensed water droplets flowing down from leaves or flower buds. The injection into a flower bud was as follows: a precursor solution was injected into the flower bud by a 5 mL syringe (0.5×20 mm injection needle) through a scale gap at a top of the flower bud until there were water droplets overflowing a surface of the flower bud. […]

[2] = system: Camellia oleifera 'Huaxin' 2n pollen; test: 2n pollen fertility rate (aceto-carmine staining) after precursor application and 45° C. high-temperature treatment of flower branches; assay type: in vivo; details: for 2n pollen fertility rate (%): 45° C.; for k1 (K1/4, mean 2n pollen fertility rate at level 1): level 1: DMTU 5 mg/L, mannitol 0.1 g/L, ascorbic acid 0.5 mg/L, brassinolide 2.0 mg/L, sucrose 5 g/L; for k2 (K2/4, mean 2n pollen fertility rate at level 2): level 2: DMTU 10 mg/L, ascorbic acid 1.0 mg/L, sucrose 10 g/L; for k3 (K3/4, mean 2n pollen fertility rate at level 3): level 3: DMTU 15 mg/L, mannitol 1.0 g/L, brassinolide 6.0 mg/L, sucrose 15 g/L; for k4 (K4/4, mean 2n pollen fertility rate at level 4): level 4: DMTU 20 mg/L, mannitol 2.0 g/L, ascorbic acid 2.0 mg/L, brassinolide 8.0 mg/L, sucrose 30 g/L
Description: as §1, §2, §3, §4, §5, §6, §7, §8, §9

[3] = Injection into a flower bud, DMTU 10 mg/L, mannitol 0.5 g/L, ascorbic acid 1.5 mg/L, brassinolide 4.0 mg/L, 4 h (Example 2B)
[4] = Spraying on a flower branch, DMTU 10 mg/L, mannitol 0.5 g/L, ascorbic acid 1.5 mg/L, brassinolide 4.0 mg/L, 4 h (Example 2B)
[5] = DMTU solution 1 mg/L sprayed on flower branch, 4 h
[6] = DMTU solution 5 mg/L sprayed on flower branch, 4 h
[7] = DMTU solution 10 mg/L sprayed on flower branch, 4 h (Example 2A)
[8] = DMTU solution 15 mg/L sprayed on flower branch, 4 h
[9] = DMTU solution 20 mg/L sprayed on flower branch, 4 h
[10] = DMTU solution 25 mg/L sprayed on flower branch, 4 h
[11] = mannitol 0.5 g/L, brassinolide 4.0 mg/L, in %

| Compound | 2n pollen yield (%) [1, 3] | 2n pollen yield (%) [1, 4] | 2n pollen fertility rate (%) [2, 3] | 2n pollen fertility rate (%) [2, 4] | k1 (K1/4, mean 2n pollen fertility rate at level 1) ([2]; in %) | k2 (K2/4, mean 2n pollen fertility rate at level 2) [2, 11] | k3 (K3/4, mean 2n pollen fertility rate at level 3) ([2]; ascorbic acid 1.5 mg/L, in %) | k4 (K4/4, mean 2n pollen fertility rate at level 4) ([2]; in %) | other results |
| --- | --- | --- | --- | --- | --- | --- | --- | --- | --- |
| O=C1O[C@H]([C@@H](O)CO)C(O)=C1O [Ascorbic acid, ascorbic acid] | 10.05% | 9.76% | 81.26% | 79.58% | – | – | – | – | k1 (K1/4, mean 2n pollen fertility rate at level 1) [2]: 80.47; k2 (K2/4, mean 2n pollen fertility rate at level 2) ([2]; mannitol 0.5 g/L, brassinolide 4.0 mg/L): 83.42; k3 (K3/4, mean 2n pollen fertility rate at level 3) ([2]; ascorbic acid 1.5 mg/L): 81.04; k4 (K4/4, mean 2n pollen fertility rate at level 4) [2]: 80.24 |
| CNC(=S)NC [DMTU, N,N′-Dimethylthiourea] | 12.17% | 11.52% | 90.14% | 86.97% | 78.23 | 87.54 | 81.12 | 78.28 | 2n pollen yield (%) [1, 5]: 9.17%; 2n pollen yield (%) [1, 6]: 9.81%; 2n pollen yield (%) [1, 7]: 11.52%; 2n pollen yield (%) [1, 8]: 10.83%; 2n pollen yield (%) [1, 9]: 10.15%; 2n pollen yield (%) [1, 10]: 9.05%; 2n pollen yields and fertility rates compared with the control ([2]; 5 mg/L, 10 mg/L, 15 mg/L and 20 mg/L DMTU solutions sprayed on flower branches): significantly improved; 2n pollen fertility rate (%) [2, 5]: 64.25%; 2n pollen fertility rate (%) [2, 6]: 75.94%; 2n pollen fertility rate (%) [2, 7]: 86.23%; 2n pollen fertility rate (%) [2, 8]: 82.46%; 2n pollen fertility rate (%) [2, 9]: 78.61%; 2n pollen fertility rate (%) [2, 10]: 64.43% |
| CC(C)[C@H](C)[C@@H](O)[C@H](O)[C@@H](C)[C@H]1CC[C@H]2[C@@H]3COC(=O)[C@H]4C[C@H](O)[C@H](O)C[C@]4(C)[C@H]3CC[C@]12C [Brassinolide, brassinolide] | 11.03% | 10.83% | 84.13% | 82.58% | 79.88 | 82.98 | 81.95 | 80.36 | – |
| OC[C@H]1O[C@@](CO)(O[C@H]2O[C@H](CO)[C@@H](O)[C@H](O)[C@H]2O)[C@@H](O)[C@@H]1O [Sucrose, sucrose] | – | – | – | – | 80.87 | 80.95 | 82.91 | 80.44 | – |
| OC[C@@H](O)[C@@H](O)[C@H](O)[C@H](O)CO [Mannitol, mannitol] | 9.68% | 9.81% | 77.89% | 75.94% | 81.64 | 82.95 | 80.98 | 79.59 | – |
